In patent publication US5789419A, “4-quinolinone derivative or salt thereof” (SS Pharmaceutical Co., Ltd., priority 1994, dated 1998):

System: endothelium-ablated specimen of rat thoracic aorta
Assay: Effect of inhibiting contraction caused by 30 mM K on endothelium-ablated specimen of rat thoracic aorta
Format: cell-based
Conditions: 10 min, cumulative application at intervals of 10 minutes, 37° C., 10^-4 M papaverine = 100% relaxation, read-out: median inhibitory concentration (IC50)
Method: (Effect of inhibiting contraction caused by 30 mM K on endothelium-ablated specimen of rat thoracic aorta)
A thoracic aorta was enucleated from a rat (weight: 129-492 g) and cut into lengths of 3 mm. Cotton in the form of a paper string was put in a lumen of each of ring specimens, and the inner surface of the ring specimen was rubbed several times with the cotton, thereby ablating an endothelium from the thoracic aorta specimen. This specimen was incubated at 37° C. and suspended in 10 ml of a Krebs-Henseleit solution, into which a mixed gas had been introduced, with a load of 2 g applied thereto. The tension thereof was isometrically recorded in a recorder through an FD transducer and a dynamic strain gage. After at least 60 minutes went on after the suspension, and the sample was stabilized, 10^-7 M noradrenaline was applied several times to the specimen. Under contraction caused by 10^-7 M noradrenaline, 10^-7 M acetylcholine was applied to the specimen. A specimen which manifested no relaxing effect at this time was used in an experiment as an endothelium-ablated specimen. Each of agents (compounds of Compound Numbers shown in Table 20 and Cromakalim) to be tested was cumulatively applied at intervals of 10 minutes from the time 30 mM K^+ had been applied to such a specimen, and the contraction of the specimen had been fixed, thereby calculating a median inhibitory concentration (IC50). Incidentally, 10^-4 M papaverine was applied to confirm 100% relaxing affect. The agents to be tested were dissolved (5×10^-2 M in dimethyl sulfoxide and diluted with purified water before their use.

IC50 | SMILES
18.8 nM | CC(=O)NN1CC(C)(C)C(=O)c2ccc(S(=O)(=O)C(F)(F)F)cc21 [Compound No. 44, 1-Acetoamino-2,3-dihydro-3,3-dimethyl-7-(trifluoromethyl) sulfonyl-4(1H)-quinolinone]
86.9 nM | CC1(C)CN(N2CCCC2=O)c2cc(S(=O)(=O)c3ccccc3)ccc2C1=O [Compound No. 63, 2,3-Dihydro-3,3-dimethyl-7-phenylsulfonyl-1-(2-oxopyrrolidin-1-yl)-4(1H)-quinolinone]
66.2 nM | CC1(C)CN(NC(=O)c2cccnc2)c2cc(C(F)(F)F)ccc2C1=O [compound 23]
100 nM | CC(=O)NN1CC(C)(C)C(=O)c2ccc(C(F)(F)F)cc21 [compound 21]
49.2 nM | CC1(C)CN(NC(=O)c2cccnc2)c2cc(OC(F)(F)F)ccc2C1=O [compound 30]
130 nM | CC1(C)Oc2ccc(C#N)cc2[C@@H](N2CCCC2=O)[C@@H]1O (racemic) [Cromakalim, (±)-trans-6-cyano-2,2-dimethyl-4-(2-oxopyrrolidin-1-yl)-3,4-dihydro-2H-1-benzopyran-3-ol, reference compound]
104 nM | CCC(=O)NN1CC(C)(C)C(=O)c2ccc(OC(F)(F)F)cc21 [compound 29]
48.2 nM | CC(=O)NN1CC(C)(C)C(=O)c2ccc(OC(F)(F)F)cc21 [compound 28]
83.2 nM | CC(=O)NN1CC(C)(C)C(=O)c2ccc(S(=O)(=O)c3ccccc3)cc21 [Compound No. 53, 1-Acetoamino-2,3-dihydro-3,3-dimethyl-7-phenylsulfonyl-4(1H)-quinolinone]
